Drawing on US8188102B2, “Amide derivative for inhibiting the growth of cancer cells” (Hanmi Holdings Co., Ltd., priority 2007, dated 2012), this text covers IC50 for 27 compounds.

In assay [1] the test system is A431 skin cancer cell line. The experiment in a line: Cancer cell growth inhibition, A431 (SRB). As to conditions: Homo sapiens, A-431, 72 h, read-out: ID50 (nM) A431.
Assay [2] concerns SK-Br3 breast cancer cell line. Briefly: Cancer cell growth inhibition, SK-Br3 (SRB). As to conditions: Homo sapiens, SK-BR-3, 72 h, read-out: ID50 (nM) SK-Br3.

Structures are written as SMILES.

`COc1cc2ncnc(Nc3ccc(F)c(Cl)c3F)c2cc1OC1CCN(C(=O)/C=C/C(=O)NO)CC1` [Example 88, (E)-4-(4-(4-(3-chloro-2,4-difluorophenylamino)-7-methoxyquinazolin-6-yloxy)piperidin-1-yl)-N-hydroxy-4-oxobut-2-enamide]: the results for the IC50 in assay [1] and in assay [2] were 187 nM and above 1000 nM, respectively.
`COc1cc2ncnc(Nc3ccc(Cl)c(Cl)c3F)c2cc1OC1CCN(C(=O)/C=C\Cl)CC1` [Example 89, (Z)-3-chloro-1-(4-(4-(3,4-dichloro-2-fluorophenylamino)-7-methoxyquinazolin-6-yloxy)piperidin-1-yl)prop-2-en-1-one]: the IC50 was 14 nM in assay [1] and 85 nM in assay [2].
For `COc1cc2ncnc(Nc3ccc(Cl)c(Cl)c3F)c2cc1OC1CCN(C(=O)/C=C/Cl)CC1` [Example 90, (E)-3-chloro-1-(4-(4-(3,4-dichloro-2-fluorophenylamino)-7-methoxyquinazolin-6-yloxy)piperidin-1-yl)prop-2-en-1-one], in that order: 39 nM and 13 nM.
As for `C=C(NC(C)=O)C(=O)N1CCC(Oc2cc3c(Nc4ccc(Cl)c(Cl)c4F)ncnc3cc2OC)CC1` [Example 91, N-(3-(4-(4-(3,4-dichloro-2-fluorophenylamino)-7-methoxyquinazolin-6-yloxy)piperidin-1-yl)-3-oxoprop-1-en-2-yl)acetamide], the IC50 in assay [1] was determined as 50 nM; in assay [2] it was 194 nM.
For `COc1cc2ncnc(Nc3ccc(F)c(Cl)c3F)c2cc1O[C@H]1CCN(C(=O)/C=C/CN(C)C)C1` [Example 92, (E)-1-((3S)-3-(4-(3-chloro-2,4-difluorophenylamino)-7-methoxyquinazolin-6-yloxy)pyrrolidin-1-yl)-4-(dimethylamino)but-2-en-1-one], in that order: 4 nM and 8 nM.
For `CCN(CC)C/C=C/C(=O)N1CC[C@H](Oc2cc3c(Nc4ccc(F)c(Cl)c4F)ncnc3cc2OC)C1` [Example 93, (E)-1-((3S)-3-(4-(3-chloro-2,4-difluorophenylamino)-7-methoxyquinazolin-6-yloxy)pyrrolidin-1-yl)-4-(diethylamino)but-2-en-1-one], in that order: 28 nM and 40 nM.
With `COc1cc2ncnc(Nc3ccc(F)c(Cl)c3F)c2cc1O[C@H]1CCN(C(=O)/C=C/CN2CCOCC2)C1` [Example 94, (E)-1-((3S)-3-(4-(3-chloro-2,4-difluorophenylamino)-7-methoxyquinazolin-6-yloxy)pyrrolidin-1-yl)-4-morpholinobut-2-en-1-one], the IC50 in assay [1] was 85 nM; in assay [2], 123 nM.
For `COc1cc2ncnc(Nc3ccc(F)c(Cl)c3F)c2cc1O[C@H]1CCN(C(=O)/C=C/CN2CCCC2)C1` [Example 95, (E)-1-((3S)-3-(4-(3-chloro-2,4-difluorophenylamino)-7-methoxyquinazolin-6-yloxy)pyrrolidin-1-yl)-4-(pyrrolidin-1-yl)but-2-en-1-one], in that order: 8 nM and 23 nM.
For `COc1cc2ncnc(Nc3cccc(Cl)c3F)c2cc1O[C@H]1CCN(C(=O)/C=C/CN(C)C)C1` [Example 96, (E)-1-((3S)-3-(4-(3-chloro-2-fluorophenylamino)-7-methoxyquinazolin-6-yloxy)pyrrolidin-1-yl)-4-(dimethylamino)but-2-en-1-one], in that order: 8 nM and 46 nM.
With `CN(C)C/C=C/C(=O)N1CC[C@H](Oc2ccc3ncnc(Nc4ccc(F)c(Cl)c4F)c3c2)C1` [Example 97, (E)-1-((3S)-3-(4-(3-chloro-2,4-difluorophenylamino)quinazolin-6-yloxy)pyrrolidin-1-yl)-4-(dimethylamino)but-2-en-1-one], the IC50 worked out at 25 nM in assay [1] and 94 nM in assay [2].
Taken in the same sequence, the figures for `COc1cc2ncnc(Nc3ccc(Cl)c(Cl)c3F)c2cc1OC1CCN(C(=O)/C=C/CN(C)C)CC1` [Example 99, (E)-1-(4-(4-(3,4-dichloro-2-fluorophenylamino)-7-methoxyquinazolin-6-yloxy)piperidin-1-yl)-4-(dimethylamino)but-2-en-1-one] were 165 nM and 39 nM.
As to `COc1cc2ncnc(Nc3cccc(Cl)c3F)c2cc1OC1CCN(C(=O)/C=C/CN(C)C)CC1` [Example 100, (E)-1-(4-(4-(3-chloro-2-fluorophenylamino)-7-methoxyquinazolin-6-yloxy)piperidin-1-yl)-4-(dimethylamino)but-2-en-1-one], the IC50 in assay [1] turned out to be 76 nM; in assay [2] it was 15 nM.
For `COc1cc2ncnc(Nc3ccc(F)c(Cl)c3F)c2cc1OC1CN(C(=O)/C=C/CN(C)C)C1` [Example 101, (E)-1-(3-(4-(3-chloro-2,4-difluorophenylamino)-7-methoxyquinazolin-6-yloxy)azetidin-1-yl)-4-(dimethylamino)but-2-en-1-one], in that order: 36 nM and 11 nM.
For `COc1cc2ncnc(Nc3cccc(Cl)c3F)c2cc1OC1CN(C(=O)/C=C/CN(C)C)C1` [Example 102, (E)-1-(3-(4-(3-chloro-2-fluorophenylamino)-7-methoxyquinazolin-6-yloxy)azetidin-1-yl)-4-(dimethylamino)but-2-en-1-one], in that order: 9 nM and 8 nM.
Taken in the same sequence, the figures for `COc1cc2ncnc(Nc3ccc(F)c(Cl)c3F)c2cc1OCCNC(=O)/C=C/CN(C)C` [Example 103, (E)-N-(2-(4-(3-chloro-2,4-difluorophenylamino)-7-methoxyquinazolin-6-yloxy)ethyl)-4-(dimethylamino)but-2-enamide] were 18 nM and 7 nM.
Regarding `C=C(CN1CCN(C)CC1)C(=O)N1CC(Oc2cc3c(Nc4ccc(F)c(Cl)c4F)ncnc3cc2OC)C1` [Example 106, 1-(3-(4-(3-chloro-2,4-difluorophenylamino)-7-methoxyquinazolin-6-yloxy)azetidin-1-yl)-2-((4-methylpiperazin-1-yl)methyl)prop-2-en-1-one], the IC50 in assay [1] was 1 nM; in assay [2], 0.5 nM.
For `C=C(CN1CCCCC1)C(=O)N1CC(Oc2cc3c(Nc4cccc(Cl)c4F)ncnc3cc2OC)C1` [Example 107, 1-(3-(4-(3-chloro-2-fluorophenylamino)-7-methoxyquinazolin-6-yloxy)azetidin-1-yl)-2-(piperidin-1-ylmethyl)prop-2-en-1-one], in that order: 2.4 nM and 0.7 nM.
Taken in the same sequence, the figures for `C=C(CN1CCCCC1)C(=O)N1CC(Oc2cc3c(Nc4ccc(F)c(Cl)c4F)ncnc3cc2OC)C1` [Example 108, 1-(3-(4-(3-chloro-2,4-difluorophenylamino)-7-methoxyquinazolin-6-yloxy)azetidin-1-yl)-2-(piperidin-1-ylmethyl)prop-2-en-1-one] were 9.1 nM and 6 nM.
Taken in the same sequence, the figures for `C=C(CN(C)C)C(=O)N1CCC(Oc2cc3c(Nc4ccc(F)c(Cl)c4F)ncnc3cc2OC)CC1` [Example 109, 1-(4-(4-(3-chloro-2,4-difluorophenylamino)-7-methoxyquinazolin-6-yloxy)piperidin-1-yl)-2-((dimethylamino)methyl)prop-2-en-1-one] were 2.7 nM and 3.5 nM.
Turning to `C=C(CN1CCOCC1)C(=O)N1CCC(Oc2cc3c(Nc4ccc(F)c(Cl)c4F)ncnc3cc2OC)CC1` [Example 110, 1-(4-(4-(3-chloro-2,4-difluorophenylamino)-7-methoxyquinazolin-6-yloxy)piperidin-1-yl)-2-(morpholinomethyl)prop-2-en-1-one], the results for the IC50 in assay [1] and in assay [2] were 10 nM and 30 nM, respectively.
`C=C(CN(C)C)C(=O)N1CCC(Oc2cc3c(Nc4ccc(Cl)c(Cl)c4F)ncnc3cc2OC)CC1` [Example 111, 1-(4-(4-(3,4-dichloro-2-fluorophenylamino)-7-methoxyquinazolin-6-yloxy)piperidin-1-yl)-2-((dimethylamino)methyl)prop-2-en-1-one]: the figures for the IC50 in assay [1] and in assay [2] were 4 nM and 6 nM, respectively.
`COc1cc2ncnc(Nc3ccc(F)c(Cl)c3F)c2cc1OC1CN(C(=O)/C=C\CN(C)C)C1` [Example 112, (Z)-1-(3-(4-(3-chloro-2,4-difluorophenylamino)-7-methoxyquinazolin-6-yloxy)azetidin-1-yl)-4-(dimethylamino)but-2-en-1-one]: the results for the IC50 in assay [1] and in assay [2] were 15 nM and 0.8 nM, respectively.
As for `COc1cc2ncnc(Nc3ccc(F)c(Cl)c3F)c2cc1OC1CCN(C(=O)/C=C\CN(C)C)CC1` [Example 113, (Z)-1-(4-(4-(3-chloro-2,4-difluorophenylamino)-7-methoxyquinazolin-6-yloxy)piperidin-1-yl)-4-(dimethylamino)but-2-en-1-one], the IC50 in assay [1] stood at 6 nM; in assay [2], 17 nM.
Consider `C=C(CO)C(=O)N1CCC(Oc2cc3c(Nc4ccc(Cl)c(Cl)c4F)ncnc3cc2OC)CC1` [Example 114, 1-(4-(4-(3,4-dichloro-2-fluorophenylamino)-7-methoxyquinazolin-6-yloxy)piperidin-1-yl)-2-(hydroxymethyl)prop-2-en-1-one], for which the IC50 was 44 nM in assay [1] and 274 nM in assay [2].
Consider `C=CC(=O)N1CC(Oc2cc3c(Nc4ccc(F)c(Cl)c4F)ncnc3cc2O)C1` [Example 115, 1-(3-(4-(3-chloro-2,4-difluorophenylamino)-7-hydroxyquinazolin-6-yloxy)azetidin-1-yl)prop-2-en-1-one], for which the IC50 in assay [1] was found to be 381 nM; in assay [2] it was 93 nM.
In the case of `C=CC(=O)N1CC(Oc2cc3c(Nc4ccc(F)c(Cl)c4F)ncnc3cc2OCCOC)C1` [Example 116, 1-(3-(4-(3-chloro-2,4-difluorophenylamino)-7-(2-methoxyethoxy)quinazolin-6-yloxy)azetidin-1-yl)prop-2-en-1-one], the IC50 worked out at 883 nM in assay [1] and 327 nM in assay [2].
Taken in the same sequence, the figures for `C=CC(=O)N1CCC(Oc2cc3c(Nc4ccc(F)c(Cl)c4F)ncnc3cc2OCCCN2CCOCC2)CC1` [Example 118, 1-(4-(4-(3-chloro-2,4-difluorophenylamino)-7-(3-morpholinopropoxy)quinazolin-6-yloxy)piperidin-1-yl)prop-2-en-1-one] were 4 nM and 2 nM.
